# Experiments:
# [1] = tested on: Sprague-Dawley rats; assay: Pre-pulse inhibition (PPI) of acoustic startle and behavioural testing; type: in vivo, rat
# [2] = molecular target: T1, HCN1 K^+ Channel (Homo sapiens, UniProt O60741); assay: Molecular target binding profile: patch-clamp functional assay (Eurofins Panlabs 952727); type: cell-based
# T1 construct: Eurofins Panlabs Ltd., Taipei, Taiwan 952727
# T1 sequence (O60741 1-890): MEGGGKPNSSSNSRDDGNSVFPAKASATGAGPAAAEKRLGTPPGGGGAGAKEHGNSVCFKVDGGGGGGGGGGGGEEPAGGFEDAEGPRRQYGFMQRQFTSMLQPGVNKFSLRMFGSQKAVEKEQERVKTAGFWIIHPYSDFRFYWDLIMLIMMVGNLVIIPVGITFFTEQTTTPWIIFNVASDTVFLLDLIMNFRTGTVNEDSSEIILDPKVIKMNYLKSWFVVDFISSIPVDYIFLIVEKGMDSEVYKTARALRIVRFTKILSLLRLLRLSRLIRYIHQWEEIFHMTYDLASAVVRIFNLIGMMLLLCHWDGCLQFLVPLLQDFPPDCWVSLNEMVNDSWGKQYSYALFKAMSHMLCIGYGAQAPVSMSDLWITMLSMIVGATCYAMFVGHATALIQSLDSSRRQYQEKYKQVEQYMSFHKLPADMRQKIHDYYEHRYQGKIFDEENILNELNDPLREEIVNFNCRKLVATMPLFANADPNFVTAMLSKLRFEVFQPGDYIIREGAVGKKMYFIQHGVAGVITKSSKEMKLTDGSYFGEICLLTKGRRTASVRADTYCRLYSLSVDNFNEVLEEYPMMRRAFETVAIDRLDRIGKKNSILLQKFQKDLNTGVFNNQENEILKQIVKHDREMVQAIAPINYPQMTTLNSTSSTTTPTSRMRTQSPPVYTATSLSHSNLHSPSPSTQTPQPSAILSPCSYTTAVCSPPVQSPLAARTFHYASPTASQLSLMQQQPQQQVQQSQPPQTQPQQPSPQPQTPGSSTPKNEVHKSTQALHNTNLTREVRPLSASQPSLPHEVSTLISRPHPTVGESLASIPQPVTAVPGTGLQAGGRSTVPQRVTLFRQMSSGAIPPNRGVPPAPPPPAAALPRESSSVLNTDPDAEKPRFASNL
# [3] = tested on: Sprague-Dawley rats; assay: Thermal sensitivity (tail flick latency) testing after bolus injection or infusion; type: in vivo, rat; details: pre-emptive analgesia, hypnotic and sub-hypnotic IV dosing regimens
# [4] = tested on: Sprague-Dawley rats; assay: Loss of righting reflex (LORR) following intravenous administration; type: in vivo, rat; details: for LORR duration, mean (SEM): 12 mg/kg IV over 30 s
# [5] = tested on: Sprague-Dawley rats; assay: Thermal tail flick latency in rats with saline or morphine osmotic minipumps (opioid tolerance); type: in vivo, rat
# [6] = tested on: GABAA Receptor
# [7] = tested on: Sprague-Dawley rats; assay: Behavioural dysfunction scoring in minipump rats; details: 12 mg/kg IV over 30 s
# [8] = molecular target: Ca^2+ Channel L-Type (Rattus norvegicus, UniProt P22002); type: binding; details: only quoted where inhibition > 15%, read-out: Percent Inhibition at 10 μM
# Chain of Ca^2+ Channel L-Type (P22002 whole entry): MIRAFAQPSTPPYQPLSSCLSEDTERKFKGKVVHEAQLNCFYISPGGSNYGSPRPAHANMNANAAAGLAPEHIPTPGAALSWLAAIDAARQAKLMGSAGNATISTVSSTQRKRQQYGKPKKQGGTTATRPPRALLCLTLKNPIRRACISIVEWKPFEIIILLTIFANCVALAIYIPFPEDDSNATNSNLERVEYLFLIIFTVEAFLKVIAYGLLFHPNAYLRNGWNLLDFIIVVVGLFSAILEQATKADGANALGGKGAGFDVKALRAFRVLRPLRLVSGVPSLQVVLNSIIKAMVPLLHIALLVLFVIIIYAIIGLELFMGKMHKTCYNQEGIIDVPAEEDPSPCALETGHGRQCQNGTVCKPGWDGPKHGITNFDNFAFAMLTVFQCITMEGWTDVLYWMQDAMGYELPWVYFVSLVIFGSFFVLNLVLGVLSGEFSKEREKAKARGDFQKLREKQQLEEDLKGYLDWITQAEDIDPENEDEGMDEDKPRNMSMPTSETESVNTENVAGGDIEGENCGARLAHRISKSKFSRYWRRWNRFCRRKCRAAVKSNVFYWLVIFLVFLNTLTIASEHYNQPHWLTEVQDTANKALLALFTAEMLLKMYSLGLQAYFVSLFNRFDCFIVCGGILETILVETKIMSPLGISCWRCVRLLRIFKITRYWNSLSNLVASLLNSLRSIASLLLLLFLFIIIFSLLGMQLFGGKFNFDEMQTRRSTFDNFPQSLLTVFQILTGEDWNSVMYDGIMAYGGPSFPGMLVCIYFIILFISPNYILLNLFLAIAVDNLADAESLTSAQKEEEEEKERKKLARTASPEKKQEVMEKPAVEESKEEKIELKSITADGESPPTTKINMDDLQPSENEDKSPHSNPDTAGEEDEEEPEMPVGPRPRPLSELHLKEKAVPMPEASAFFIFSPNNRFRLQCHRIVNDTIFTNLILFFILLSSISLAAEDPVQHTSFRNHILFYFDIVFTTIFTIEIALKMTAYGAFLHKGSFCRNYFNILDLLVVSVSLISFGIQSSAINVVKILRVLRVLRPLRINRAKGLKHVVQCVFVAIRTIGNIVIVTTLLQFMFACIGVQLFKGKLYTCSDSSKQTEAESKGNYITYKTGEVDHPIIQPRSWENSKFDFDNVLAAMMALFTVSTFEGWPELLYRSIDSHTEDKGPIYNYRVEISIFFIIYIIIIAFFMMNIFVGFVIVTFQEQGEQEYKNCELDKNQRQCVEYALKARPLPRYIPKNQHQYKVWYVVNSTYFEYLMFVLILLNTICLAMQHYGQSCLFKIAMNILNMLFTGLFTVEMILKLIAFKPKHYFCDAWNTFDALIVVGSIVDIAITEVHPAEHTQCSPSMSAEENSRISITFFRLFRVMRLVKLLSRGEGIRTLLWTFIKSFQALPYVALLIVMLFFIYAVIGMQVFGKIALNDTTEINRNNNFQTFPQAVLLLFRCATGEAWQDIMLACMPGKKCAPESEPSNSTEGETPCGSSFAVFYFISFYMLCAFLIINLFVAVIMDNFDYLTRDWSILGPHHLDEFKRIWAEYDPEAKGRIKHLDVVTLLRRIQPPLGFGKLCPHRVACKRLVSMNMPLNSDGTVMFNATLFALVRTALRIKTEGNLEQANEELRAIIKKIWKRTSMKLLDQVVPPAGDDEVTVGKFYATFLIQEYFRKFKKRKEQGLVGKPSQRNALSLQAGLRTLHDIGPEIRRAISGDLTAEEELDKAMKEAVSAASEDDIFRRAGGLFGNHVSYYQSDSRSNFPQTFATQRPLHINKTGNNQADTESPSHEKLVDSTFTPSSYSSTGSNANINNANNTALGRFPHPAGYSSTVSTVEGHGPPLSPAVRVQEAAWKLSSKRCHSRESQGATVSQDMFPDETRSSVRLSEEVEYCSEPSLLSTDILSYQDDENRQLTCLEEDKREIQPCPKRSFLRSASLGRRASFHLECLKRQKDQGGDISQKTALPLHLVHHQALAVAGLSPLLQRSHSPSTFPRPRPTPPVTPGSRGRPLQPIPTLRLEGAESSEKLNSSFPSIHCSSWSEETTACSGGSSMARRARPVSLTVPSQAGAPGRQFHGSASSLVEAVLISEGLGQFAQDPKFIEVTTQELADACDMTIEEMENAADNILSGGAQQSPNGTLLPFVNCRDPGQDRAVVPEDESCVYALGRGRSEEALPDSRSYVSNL
smiles,measurement,setting,value
CNC1(c2ccccc2Cl)CCCCC1=O (stereo not drawn) [Ketamine],Pre-pulse inhibition (PPI) effect,"[1]; 5 minutes after IV dosing, ketamine 10 mg/kg, KEA-1010 11 mg/kg, KEA-1037 10 mg/kg",disrupted the PPI effect
same,Percent PPI or startle amplitude,[1]; 30 min after drug administration,No statistically significant differences
same,Ataxia,"[1]; behavioural testing post dosing, ketamine 10 mg/kg, KEA-1010 11 mg/kg, KEA-1037 10 mg/kg IV",greater ataxia at 23 and 48 min post dosing compared with vehicle
same,IC50,[2],> 100 µM
same,inhibition at 100 µM,"[2]; patch-clamp assay quoted at 100 μM, not 10 μM (top dose employed), read-out: Percent Inhibition",15%
same,Thermal tail flick latency,[3],prolonged thermal tail flick latency
same,"LORR duration, mean (SEM)","[4]; rats with morphine minipump (6 mg daily), day 1",247.0 (28.4) seconds
same,"LORR duration, mean (SEM)","[4]; rats with morphine minipump (6 mg daily), day 6",272.5 (12.9) seconds
same,"LORR duration, mean (SEM)","[4]; rats with saline minipump, day 1",189.2 (23.8) seconds
same,"LORR duration, mean (SEM)","[4]; rats with saline minipump, day 6",277.0 (16.9) seconds
same,"Induction of LORR, animals affected","[4]; 12 mg/kg over 30 s, rats with saline or morphine minipumps, days one and six",all animals
same,ED50,"[4]; Rattus norvegicus, rats, 30 s bolus intravenous injection",9.6 mg/kg
same,"Duration of loss of righting, mean (SEM)","[4]; rats, 10 minute hypnotic IV infusion (KEA-1010 total 56 mg/kg; ketamine total 28 mg/kg)",418.0 (86.4) seconds
same,"Duration of loss of righting, mean (SEM)","[4]; rats, hypnotic IV bolus over 15 s (KEA-1010 11 mg/kg; ketamine 10 mg/kg)",491.8 (67.7) seconds
same,Slope of LORR duration vs. dose curves,"[4]; rats, intravenous injection over 30 s",69.8 s/mg/kg
same,"Thermal tail flick latency, augmentation of morphine analgesia","[5]; 12 mg/kg IV over 30 s, morphine minipump animals, day one",augmented morphine mediated analgesia
same,Thermal tail flick latency in opioid tolerant rats,"[5]; 12 mg/kg IV over 30 s, morphine minipump rats, day six",TFL prolongation of similar magnitude to that of saline mini-pump subjects
same,Thermal tail flick latency,"[5]; 12 mg/kg IV over 30 s, opioid-naïve rats, day one post saline minipump insertion",Prolongation of thermal tail flick
same,Thermal tail flick latency,"[5]; 12 mg/kg IV over 30 s, saline minipump rats, day six",prolonged tail flick latency
same,Percent Inhibition at 10 μM,"[6]; 10 μM, only quoted where inhibition > 15%",− (Percent Inhibition at 10 μM only quoted where inhibition > 15%)
same,IC50,[6]; radioligand binding,> 10 µM
same,Time of gradual return to normal behavioural patterns,[7]; minipump rats,40 to 50 min
same,Time of maximal behavioural dysfunction,[7]; minipump rats,5 min
same,Behavioural dysfunction score / behavioural aberration,"[7]; saline or morphine minipump rats, days one and six",profound behavioural aberration
same,inhibition at 10 µM,[8],24%
CN1CC[C@]23c4c5ccc(O)c4O[C@H]2[C@@H](O)C=C[C@H]3[C@H]1C5 [morphine],Thermal tail flick latency compared with vehicle treated animals,[5]; 24 h of continuous morphine treatment via minipump (6 mg daily),significant antinociception
same,Time to development of tolerance to thermal tail flick stimuli,[5]; continuous subcutaneous pump administration of morphine (6 mg/day) in rats,3 to 4 days

# Reference: publication PMC6923863 (BMC Pharmacology & Toxicology, 2019)
